Like-named read-outs stand apart in the source and are kept apart here.

This is an account of results in patent US20210253518A1, “KINASE INHIBITOR” (NISSAN CHEMICAL CORPORATION, priority 2018, published 2021).

Assay in all cases: Off-chip Mobility Shift Assay (MSA method), kinase inhibition
What all share (assay type): biochemical

Experiment [1] deals with MSK1 (Homo sapiens, UniProt O75582). The following applies: for inhibition at 0.1 µM: read-out: inhibition (%) MSK1. As for the experimental part: (§1) For compound k-1:B-1, inhibitory activity evaluation (calculation of 50% inhibitory concentration (IC50)) was performed on 8 kinds of kinases (CGK2, LATS2, MSK1, p70S6K, PKACα, PKACβ, SGK2, SGK3). The activity was measured using the Off-chip Mobility Shift Assay (MSA method) described below. The compound was added such that the test concentration of k-1:B-1 was in 10 steps from the final concentration of 10 μM to 0.3 nM.
(§2) As an analysis method of the data, the mean signal of the control well containing all reaction components was set to 0% inhibition, the mean signal without enzyme addition was set to 100% inhibition, and the inhibition rate was calculated from the mean signal of 2 wells of each test substance test. The IC50 value was obtained by approximating a plot based on the test substance concentration and inhibition rate to a 4 parameter logistics curve by using the Excel Solver add-in and by the non-linear least squares method.
(§3) 5 μL of k-1:B-1 solution at 4-fold concentration, 5 μL of substrate/ATP/metal solution at 4-fold concentration, and 10 μL of kinase solution at 2-fold concentration, each prepared with assay buffer (20 mM HEPES, 0.01% Triton X-100, 2 mM DTT, pH 7.5), were mixed in the wells of a polypropylene 384-well plate and reacted at room temperature for 1 or 5 hr. Successively, 70 μL of Termination Buffer (QuickScout Screening Assist MSA; Carna Biosciences) was added to discontinue the reaction. Then, the substrate peptide and the phosphorylated peptide in the reaction solution were separated and quantified by the LabChip system (Perkin Elmer). The kinase reaction was evaluated by the resultant product ratio (P/(P+S)) calculated from the substrate peptide peak height (S) and the phosphorylated peptide peak height (P).
(§4) For compounds k-1:H-7, k-1:H-1, k-1:D-1, k-1:J-1, and k-1:B-1, inhibitory rate at 100 nM was calculated on 8 kinds of kinases (CGK2, LATS2, MSK1, p70S6K, PKACα, PKACβ, SGK2, SGK3). The activity was measured using the MSA method. As an analysis method of the data, the mean signal of the control well containing all reaction components was set to 0% inhibition, the mean signal without enzyme addition was set to 100% inhibition, and the inhibition rate was calculated from the mean signal of 2 wells of each test substance test.
as §3, with “a compound” for “k-1:B-1”

Experiment [2] deals with PKACα (Homo sapiens, UniProt P17612). As to conditions: for inhibition at 0.1 µM: read-out: inhibition (%) PKACα. As for the experimental part: as §1, §2, §3, §4
as §3, with “a compound” for “k-1:B-1”

Experiment [3] concerns the target T1, LATS2 (Homo sapiens, UniProt Q9NRM7).
T1 sequence (Q9NRM7 1-1088): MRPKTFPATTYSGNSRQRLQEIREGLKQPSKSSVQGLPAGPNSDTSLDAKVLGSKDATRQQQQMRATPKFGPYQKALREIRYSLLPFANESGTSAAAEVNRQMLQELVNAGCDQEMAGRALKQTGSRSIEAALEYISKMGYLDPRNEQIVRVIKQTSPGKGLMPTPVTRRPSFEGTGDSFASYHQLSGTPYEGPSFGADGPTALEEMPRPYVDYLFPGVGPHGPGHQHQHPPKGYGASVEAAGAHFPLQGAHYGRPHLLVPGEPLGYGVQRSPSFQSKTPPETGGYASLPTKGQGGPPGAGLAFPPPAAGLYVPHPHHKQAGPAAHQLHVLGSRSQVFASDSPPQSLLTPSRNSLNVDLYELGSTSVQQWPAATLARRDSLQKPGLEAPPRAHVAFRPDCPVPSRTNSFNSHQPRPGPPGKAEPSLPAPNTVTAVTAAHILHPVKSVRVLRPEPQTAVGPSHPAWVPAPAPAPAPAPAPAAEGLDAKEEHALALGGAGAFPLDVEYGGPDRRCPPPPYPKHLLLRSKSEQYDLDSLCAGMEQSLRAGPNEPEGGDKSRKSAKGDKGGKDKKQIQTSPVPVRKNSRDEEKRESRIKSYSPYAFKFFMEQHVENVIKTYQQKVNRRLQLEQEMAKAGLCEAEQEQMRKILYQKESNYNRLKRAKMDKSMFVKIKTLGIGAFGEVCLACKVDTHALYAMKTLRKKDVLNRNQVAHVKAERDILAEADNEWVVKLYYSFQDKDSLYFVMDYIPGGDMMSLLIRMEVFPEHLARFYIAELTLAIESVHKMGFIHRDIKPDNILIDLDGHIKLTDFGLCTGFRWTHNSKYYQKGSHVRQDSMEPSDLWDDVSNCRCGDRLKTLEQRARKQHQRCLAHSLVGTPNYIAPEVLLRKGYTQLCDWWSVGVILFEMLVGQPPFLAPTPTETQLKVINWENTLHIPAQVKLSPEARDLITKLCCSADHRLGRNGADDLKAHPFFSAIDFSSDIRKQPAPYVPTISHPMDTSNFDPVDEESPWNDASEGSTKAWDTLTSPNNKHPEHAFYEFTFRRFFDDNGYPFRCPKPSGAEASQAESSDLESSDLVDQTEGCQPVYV
As to conditions: for IC50: 10 steps from 10 μM to 0.3 nM; for inhibition at 0.1 µM: read-out: inhibition (%) LATS2. As for the experimental part: as §1, §2, §3, §4
as §3, with “a compound” for “k-1:B-1”
For compounds k-1:I-1, k-1:D-1, k-1:J-1, k-1:H-1, k-1:H-7, k-1:B-1, k-5:H-1, k-1:H-3, k-1:D-4 and k-1:I-10, inhibitory activity evaluation (calculation of IC50) was performed on LATS2. The activity was measured using the Off-chip Mobility Shift Assay (MSA method) described below. The compounds were added such that the test concentration of each compound was in 10 steps from the final concentration of 10 μM to 0.3 nM.
5 μL of k-1:I-1, k-1:D-1, k-1:J-1, k-1:H-1, k-1:H-7, k-1:B-1, k-5:H-1, k-1:H-3, k-1:D-4 and k-1:I-10 solutions at 4-fold concentration, 5 μL of substrate/ATP/metal solution at 4-fold concentration, and 10 μL of kinase solution at 2-fold concentration, each prepared with assay buffer (20 mM HEPES, 0.01% Triton X-100, 2 mM DTT, pH 7.5), were mixed in the wells of a polypropylene 384-well plate and reacted at room temperature for 1 or 5 hr. […]

Setting [4] is: MSA method, 10 steps from 10 μM to 0.3 nM.

MSK1, sequence (O75582 whole entry): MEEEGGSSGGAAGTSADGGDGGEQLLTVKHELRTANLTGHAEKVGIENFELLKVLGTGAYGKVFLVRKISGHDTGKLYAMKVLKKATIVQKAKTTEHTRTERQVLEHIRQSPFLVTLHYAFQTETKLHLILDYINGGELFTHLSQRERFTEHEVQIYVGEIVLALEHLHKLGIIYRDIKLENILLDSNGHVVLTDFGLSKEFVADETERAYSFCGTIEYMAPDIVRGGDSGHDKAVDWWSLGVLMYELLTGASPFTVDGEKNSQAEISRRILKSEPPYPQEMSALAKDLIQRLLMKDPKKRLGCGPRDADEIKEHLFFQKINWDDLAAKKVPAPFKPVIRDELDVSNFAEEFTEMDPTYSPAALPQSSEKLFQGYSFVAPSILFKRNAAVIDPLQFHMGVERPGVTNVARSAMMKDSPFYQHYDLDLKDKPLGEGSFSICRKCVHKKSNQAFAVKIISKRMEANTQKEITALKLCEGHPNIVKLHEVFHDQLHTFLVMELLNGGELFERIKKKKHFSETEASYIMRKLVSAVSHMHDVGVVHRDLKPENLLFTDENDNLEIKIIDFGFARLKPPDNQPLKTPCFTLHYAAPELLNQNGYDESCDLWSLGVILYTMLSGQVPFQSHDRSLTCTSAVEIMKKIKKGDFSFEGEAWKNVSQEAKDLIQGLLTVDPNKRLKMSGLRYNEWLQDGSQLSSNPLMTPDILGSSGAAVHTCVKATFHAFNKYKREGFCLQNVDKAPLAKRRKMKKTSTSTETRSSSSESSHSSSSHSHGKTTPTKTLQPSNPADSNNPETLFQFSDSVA

Regarding `CC/C(=N\NC(=O)C(C)Nc1ccccc1)c1ccc(O)c(C)c1O` (stereo not shown) [k-1:B-1], the values for the half-maximal inhibitory concentration (IC50) in experiment [1] (setting [4]), in experiment [2] (setting [4]) and in experiment [3] (MSA method) were 17.4 nM, 23.4 nM and 5.12 nM, respectively. The inhibition at 0.1 µM worked out at 87.7% in experiment [1] (at 100 nM, MSA method); 82.8% in experiment [2] (at 100 nM, MSA method); 93.8% in experiment [3] (at 100 nM, MSA method).
Regarding `CC/C(=N\NC(=O)CNc1cccc(O)c1)c1ccc(O)c(C)c1O` [k-1:D-1], the inhibition at 0.1 µM in experiment [1] is 101%; in experiment [2], 99.7%; in experiment [3], 101%. Also, in experiment [3] (MSA method), the concentration for half-maximal inhibition (IC50) is 1.84 nM.
With `CCC(=NNC(=O)CNc1ccccc1)c1ccc(O)c(C)c1O` [k-1:H-1], the inhibition at 0.1 µM was found to be 99.7% in experiment [1] (at 100 nM, MSA method); 92.1% in experiment [2] (at 100 nM, MSA method); 92.1% in experiment [3] (at 100 nM, MSA method). Besides, in experiment [3] (MSA method), the IC50 came out at 12.9 nM.
For `CCC(=NNC(=O)C(CC)Nc1ccccc1)c1ccc(O)c(C)c1O` (stereo not shown) [k-1:H-7], the inhibition at 0.1 µM in experiment [1] (at 100 nM, MSA method) was found to be 94.9%; in experiment [2] (at 100 nM, MSA method) it was 77.7%; in experiment [3] (at 100 nM, MSA method) it was 95.8%. The IC50 in experiment [3] (MSA method) was found to be 6.57 nM.
Regarding `CC/C(=N\NC(=O)NCc1cccc(O)c1)c1ccc(O)c(C)c1O` [k-1:J-1], the figures for the inhibition at 0.1 µM in experiment [1], in experiment [2] and in experiment [3] were 99.6%, 94% and 96.2%, respectively. Moreover, in experiment [3] (MSA method), the IC50 amounted to 5.26 nM.
